Data as given in patent US20260259231A1, “METHODS AND DEVICES FOR DETECTION OF COAGULATION IMPAIRMENT” (Coagulo Medical Technologies, Inc., priority 2021, published 2026).
Where two headings read alike, the source gives them in different places.

Assays:
FXa = molecular target: T1, FXa (Homo sapiens, UniProt P00742); assay: Clotting curves of citrated plasma from emergency department patients on FXa-I; assay type: in vivo; settings: patient plasma samples
T1 construct: Citrated plasma samples were collected from patients; from tissue; host or cells: citrated plasma of patients
Experimental: Citrated plasma samples were collected from patients admitted into the Massachusetts General Hospital Emergency Department. All plasma samples had clinician-ordered coagulation tests (PT/INR, aPTT, DTT, or other). Patient samples were evaluated using an embodiment of the assay described herein. Patient medical records were reviewed for the administration of history of anticoagulants.
Clotting times were compared at various agonist concentrations for all the patient groups to construct clotting curves.

[1] = PT and INR of patients on FXa-I versus controls; assay type: in vivo, human; settings: patients documented to be on FXa-I; significance p<0.05
Description: FIGS. 18A-18C illustrate prothrombin time (PT) and international normalized ratio (INR) is sensitive but not specific for FXa-I anticoagulation. Both PT and INR were compared between control patients and patients documented to be on FXa-I. Abnormal PT was defined as >14 seconds and abnormal INR was defined as >1.2. […] One-way ANOVA was used to compare normal and abnormal controls with both rivaroxaban and apixaban. Significance was defined as p<0.05.

Factor Xa (FXa) = Factor Xa (FXa) (Homo sapiens, UniProt P00742); assay: Microfluidic clotting-curve assay, plasma spiked with FXa inhibitor, FXa agonist gradient; assay type: biochemical
Description: (§1) A general protocol for performing the assay according to an embodiment of the invention is as follows: • a) Add together sample, agonist, +/−calcium, +/−clot detection agent • i. Calcium to a final concentration between 0.005-0.05 M (This concentration is particularly suitable for use with 3.2% buffered sodium citrate. If another anticoagulant is used, the concentration of calcium may not be 0.02 M.) • ii. Clot detection agents can include fluorescent labeled fibrinogen, magnets, beads (may be fluorescent or colored) • b) Load into microfluidic device • i. See, e.g., FIGS. 1A-1D, 2A and 2B for examples of input loading configuration and order • c) Temperature control • i. Room temperature • ii. May increase up to 37° C.
(§2) In an example, the process of clot detection can include the following procedural steps: • a) A plasma sample is pre-mixed to include: 6 μL plasma+0.6 μL agonist (10% volume to sample)+0.6 μL Calcium (stock 200 mM, 10% volume to sample)+0.6 μL Fibrinogen (this can vary in concentration, in general <10% volume of sample).
(§3) The time it takes for each of the combinations to form a clot is then plotted. […] Concentration of the agonist (FXa for FIGS. 7A-7C, and FIIa for FIG. 7D) is plotted on the X-axis for each of the figures. The units on the X-axis “ng/mL” refer to ng×10^3/mL.

[2] = system: contact activation pathway (intrinsic pathway); assay: Clotting times of control and factor-deficient plasmas with exogenous coagulation factors (FIG. 25); assay type: biochemical
Description: FIG. 25 is a table providing representative clotting times (minutes:seconds) for various plasma samples in the presence of exogenous coagulation factors. […] The clotting time for the control plasma, with no exogenous factor added (negative control), represents the clotting time based on activation of the contact activation pathway (intrinsic pathway); this clotting time can be designated as normal clotting time. […] The clotting time of the FVIII-deficient plasma decreases with the addition of FVIII or FIXa. […] The clotting time of FIX-deficient plasma decreases with the addition of exogenous FIX or FIXa. In all plasma samples, exogenous FXa is used as a positive control to confirm the ability of the plasma sample to clot. FIIa can also be used for this purpose.

Factor IX = Factor IX (Homo sapiens, UniProt P00740); assay: Clotting curve, Factor IX added to FIX-deficient plasma or plasma with anti-Factor IX antibodies (FIG. 26); assay type: biochemical
Description: It should be understood that the use of exogenous factor addition to a plasma sample may not be able to differentiate between deficiency and low quantities of inhibitors, for example, if the concentration of the inhibitor is low enough such that a physiological level of the factor is able to overcome the functional inhibition resulting in a normalized clotting time. Additionally, the inhibitor detected using the clotting time approach is a functional inhibitor such that the inhibitor decreases the factor's ability to propagate a blood clot.

Factors IIa and Xa = assay: Whole blood clot detection in parallel microfluidic channels pre-coated with FXa; settings: whole blood with unfractionated heparin, 10 minutes
Experimental: FIGS. 4A and 4B are fluorescent images illustrating clot detection using whole blood in a parallel microfluidic channel device 410 according to an example embodiment. Microfluidic channels 420 were pre-coated with agonist, Factor Xa, at various concentrations (7.5 ng/ml, 75 ng/ml, 750 ng/ml; units “ng/mL” refer to ng×10^3/mL) or with buffer alone (negative control). The fluorescent images are taken at one time point (10 minutes). Microfluidic channels were washed with buffer prior to use to leave only bound FXa within the microfluidic channel. Fresh whole blood was placed into each input port and the blood was drawn in through capillary action. The blood was left to flow for 10 minutes and then the channel was gently washed with buffer. Depicted is a brightfield image of two samples evaluated. […] Unfractionated heparin inhibits Factors IIa and Xa in an antithrombin III-dependent fashion, which is why the addition of these factors at appropriate concentrations can help recover the clotting capability of the sample.

[3] = system: coagulation cascade (FXa, FIIa, FXI inhibition); assay: Clotting time of inhibitor-spiked blood samples on addition of buffer, FXa or FIIa (FIG. 33B); settings: for clotting time, control condition: no exogenous factor added, contact activation pathway activator; for clotting time upon addition of exogenous FIIa: two concentrations of FIIa; for clotting time upon addition of exogenous FXa: two concentrations of FXa
Experimental: The control condition (where no exogenous factor is added) utilizes an activator of the contact activation pathway to activate FXII to FXIIa. FIG. 33B is a bar graph showing the clotting time responses to the addition of buffer (control), two concentrations of FXa, and two concentrations of FIIa. […] The amount of exogenous FIIa added to the sample was inadequate to overcome all of the FIIa inhibition present in the sample. In these examples in FIG. 33B, when a sample's clotting time normalizes to the negative control clotting time, such a result is also described as an “unaffected” clotting time in the figures depicting the pathways.

FIIa = FIIa (Homo sapiens, UniProt P00734)
Description: as §1, §2, §3

FXI = FXI (Homo sapiens, UniProt P03951); assay: Clotting time of inhibitor-spiked whole blood samples on addition of exogenous FXI (FIG. 33A, 33C); settings: FIG. 33C; FXI inhibitor at Conc 1<Conc 2<Conc 3
Experimental: FIG. 33A provides representative clotting-curves of whole blood samples spiked with a concentration of FXI inhibitor (inh) (Conc 1<Conc 2<Conc 3); no inhibitor was added to the negative control. The curves show the samples' respective changes in clotting time as a response to the addition of increasing concentrations of exogenous FXI.
FIG. 33C reports the effect of the addition of exogenous FXI on the clotting time of various samples. In this example, the negative control, containing no inhibitor, has an unaffected clotting time with the addition of FXI.

Factor Xa (FXa), sequence (P00742 235-488 limits assumed): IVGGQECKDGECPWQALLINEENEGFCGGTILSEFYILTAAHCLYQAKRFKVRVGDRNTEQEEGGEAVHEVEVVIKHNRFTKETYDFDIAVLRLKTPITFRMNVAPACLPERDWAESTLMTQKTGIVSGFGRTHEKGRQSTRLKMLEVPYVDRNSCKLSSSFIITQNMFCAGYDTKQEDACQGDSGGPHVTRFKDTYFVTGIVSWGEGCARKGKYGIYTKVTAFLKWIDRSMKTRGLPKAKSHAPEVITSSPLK
Factor Xa (FXa), sequence (P00742 41-179 partner limits assumed): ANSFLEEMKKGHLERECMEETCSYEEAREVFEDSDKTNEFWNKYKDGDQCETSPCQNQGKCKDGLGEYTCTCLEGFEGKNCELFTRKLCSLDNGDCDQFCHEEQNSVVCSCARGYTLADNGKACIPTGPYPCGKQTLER
Factor IX, sequence (P00740 29-461 limits assumed): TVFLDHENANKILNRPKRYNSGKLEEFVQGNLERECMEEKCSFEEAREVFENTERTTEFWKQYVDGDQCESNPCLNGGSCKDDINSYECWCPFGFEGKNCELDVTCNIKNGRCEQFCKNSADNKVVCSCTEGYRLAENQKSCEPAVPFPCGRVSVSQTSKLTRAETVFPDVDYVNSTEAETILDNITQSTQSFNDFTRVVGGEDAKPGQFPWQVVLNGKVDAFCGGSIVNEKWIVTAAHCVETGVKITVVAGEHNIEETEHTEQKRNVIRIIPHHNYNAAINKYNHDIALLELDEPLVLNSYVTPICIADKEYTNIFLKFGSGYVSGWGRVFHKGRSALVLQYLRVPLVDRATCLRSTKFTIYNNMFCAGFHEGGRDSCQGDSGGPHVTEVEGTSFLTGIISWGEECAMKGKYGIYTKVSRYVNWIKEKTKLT
FXI, sequence (P03951 19-625, species assumed): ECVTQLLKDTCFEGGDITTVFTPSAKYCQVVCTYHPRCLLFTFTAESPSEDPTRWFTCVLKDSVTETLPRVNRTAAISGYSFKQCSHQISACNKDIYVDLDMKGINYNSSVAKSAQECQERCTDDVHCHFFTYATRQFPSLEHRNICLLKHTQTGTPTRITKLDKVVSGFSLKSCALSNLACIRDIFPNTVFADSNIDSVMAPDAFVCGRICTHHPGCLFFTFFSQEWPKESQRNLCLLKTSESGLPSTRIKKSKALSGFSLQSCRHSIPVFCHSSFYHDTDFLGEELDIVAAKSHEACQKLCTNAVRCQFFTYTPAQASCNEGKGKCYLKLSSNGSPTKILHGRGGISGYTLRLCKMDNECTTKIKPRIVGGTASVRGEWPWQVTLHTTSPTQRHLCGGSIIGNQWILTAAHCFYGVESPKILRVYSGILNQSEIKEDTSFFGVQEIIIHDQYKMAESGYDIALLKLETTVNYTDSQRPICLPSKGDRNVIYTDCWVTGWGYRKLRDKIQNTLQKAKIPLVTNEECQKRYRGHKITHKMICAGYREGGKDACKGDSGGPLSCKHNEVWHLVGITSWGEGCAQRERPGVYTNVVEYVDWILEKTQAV
T1 sequence (P00742 235-488 limits assumed): as the sequence (P00742 235-488 limits assumed) above
T1 sequence (P00742 41-179 partner limits assumed): as the sequence (P00742 41-179 partner limits assumed) above

Molecule	PT and INR compared to abnormal controls (one-way ANOVA) [1]	clotting time upon addition of exogenous factor ([2]; FIX-deficient plasma)	clotting time upon addition of exogenous factor ([2]; FVIII-deficient plasma)	clotting time upon addition of exogenous factor ([2]; FXI-deficient plasma)	clotting time upon addition of exogenous factor ([2]; control (normal) plasma)	clotting time, control condition [3]	clotting time upon addition of exogenous FIIa [3]	clotting time upon addition of exogenous FXa [3]	also measured
O=C(NC[C@H]1CN(c2ccc(N3CCOCC3=O)cc2)C(=O)O1)c1ccc(Cl)s1 [Rivaroxaban]	no significance	–	–	–	–	–	–	–	clotting times at various agonist concentrations, patient group versus control group (FXa): very different from the control group; clot formation time versus negative control (Factor Xa (FXa); 250 ng/mL Rivaroxaban, FXa agonist down to 375 ng×10^3/mL): significantly longer than the negative control but lower than 500 ng/mL; agonist (FXa) concentration down to which clot formation detected in <[…] (Factor Xa (FXa); 500 ng/ml Rivaroxaban): 750 ng×10^3/mL; clot formation detection time (Factor Xa (FXa); 500 ng/ml Rivaroxaban, FXa agonist down to 750 ng×10^3/mL): < 2.5 min
FXI: exogenous coagulation Factor XI, inactive form	–	prolonged clotting time	prolonged clotting time	decreases	slight decrease in clotting time	–	–	–	–
FIX: exogenous coagulation Factor IX, inactive form	–	decreases	prolonged clotting time	prolonged clotting time	slight decrease in clotting time	–	–	–	concentration of added factor needed for normal clotting time (Factor IX; Factor IX-deficient plasma): requires a physiological concentration of replacement factor; concentration of added factor needed to decrease clotting time (Factor IX; plasma containing anti-Factor IX antibodies): requires supra-physiological concentrations of the factor
unfractionated heparin	–	–	–	–	–	–	–	–	clot formation in negative control channel (buffer alone) (Factors IIa and Xa): minimal clot formation; clot formation in FXa-coated channels (Factors IIa and Xa; FXa 7.5, 75, 750 ng×10^3/mL): gradient of clot formation dependent on the concentration of FXa in the channel
Dabigatran	–	–	–	–	–	prolongation of clotting time	concentration-dependent change in clotting time	relatively small concentration-dependent change in clotting time	clot formation detection time (FIIa; 250 ng/mL Dabigatran, FIIa agonist down to 710 ng×10^3/mL): < 2.5 min; clot formation detection time (FIIa; 500 ng/ml Dabigatran, FIIa agonist down to 710 ng×10^3/mL): < 2.5 min; clot formation detection time (FIIa; <25 ng/ml Dabigatran, FIIa agonist down to 71 ng×10^3/mL): < 2.5 min
COc1ccc(-n2nc(C(N)=O)c3c2C(=O)N(c2ccc(N4CCCCC4=O)cc2)CC3)cc1 [Apixaban]	no significance	–	–	–	–	prolongation of clotting time	shortened and normalized clotting time	concentration-dependent clotting-time response	clotting time with addition of exogenous FXI (FXI): prolongation in clotting time
